Assay results from US9708312B2, “Dihydropyrimidinoisoquinolinones and pharmaceutical compositions thereof for the treatment of inflammatory disorders (GPR84 antagonists)” (GALAPAGOS NV, priority 2012, dated 2017).

Target: T1, GPR84 (Homo sapiens, UniProt Q9NQS5)
T1 construct: expressed in transfected cells
Assay: GPR84 [35S]GTPγS binding assay, HEPES buffer
Type: biochemical
Settings: 3,3′ di indolylmethane at EC80, membranes from stable cell line over expressing GPR84
Description: 1.1. Cell Based Assay: GTp-γ S Binding Assay.
The following assay can be used for determination of GPR84 activation.
The assay is performed in a 96 well plate where the following reagents are added. […] In a last step, 30 μL of a mixture consisting of membranes-GTPγS-SpA beads is added [mixture consists of 20 μg/well membranes derived from stable cell line over expressing GPR84 (membranes are pre-incubated with 0.1 μM GDP for 15 min at 4° C.), 0.1 nM [^35S]GTPγS (Perkin Elmer, NEG030) and 0.5 mg/well PVT-WGA SpA beads (Perkin Elmer, RPNQ0001)]. All components are diluted in assay buffer containing 20 mM HEPES pH 7.4; 5 mM MgCl2; 250 mM NaCl; 0.05% BSA; 75 ug/mL saponin Reactions are incubated for 90 min at room temperature followed by centrifugation at 2000 rpm during 15 min. Plates are read on a Topcount reader (Perkin Elmer) immediately after centrifugation (readout time, 1 min/well).

T1 sequence (Q9NQS5 whole entry): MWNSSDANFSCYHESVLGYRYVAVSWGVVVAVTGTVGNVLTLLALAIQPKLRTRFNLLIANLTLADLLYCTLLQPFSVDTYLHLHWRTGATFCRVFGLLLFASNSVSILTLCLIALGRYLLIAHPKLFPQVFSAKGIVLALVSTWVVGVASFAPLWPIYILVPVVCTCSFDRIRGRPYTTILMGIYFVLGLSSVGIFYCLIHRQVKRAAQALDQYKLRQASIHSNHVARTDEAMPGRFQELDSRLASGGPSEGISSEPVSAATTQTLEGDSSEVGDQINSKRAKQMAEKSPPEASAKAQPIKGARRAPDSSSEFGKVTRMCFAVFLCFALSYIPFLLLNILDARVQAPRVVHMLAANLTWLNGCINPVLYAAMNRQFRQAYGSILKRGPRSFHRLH

Row | IC50 | SMILES
1 | 100 to 500 nM | O=c1nc(OCC2CCCO2)cc2n1CCc1cc(OCC3CC3)ccc1-2 (stereo not shown) [compound 11, 9-cyclopropylmethoxy-2-(tetrahydro-furan-2-ylmethoxy)-6,7-dihydro-pyrimido[6,1-a]isoquinolin-4-one]
2 | 0.01 to 100 nM | COc1cncc(-c2ccc3c(c2)CCn2c-3cc(OCC3COc4ncccc4O3)nc2=O)c1 (stereo not shown) [compound 140, 2-(2,3-dihydro-[1,4]dioxino[2,3-b]pyridin-2-ylmethoxy)-9-(5-methoxy-pyridin-3-yl)-6,7-dihydro-pyrimido[6,1-a]isoquinolin-4-one]
3 | 100 to 500 nM | N#Cc1cccc(-c2ccc3c(c2)CCn2c-3cc(OCC3CCCO3)nc2=O)c1 (stereo not shown) [compound 95, 3-[4-Oxo-2-(tetrahydro-furan-2-ylmethoxy)-6,7-dihydro-4H-pyrimido[6,1-a]isoquinolin-9-yl]-benzonitrile]
4 | 0.01 to 100 nM | COc1cccc(OCCOc2ccc3c(c2)CCn2c-3cc(OCC3CCCO3)nc2=O)c1 (stereo not shown) [compound 41, 9-[2-(3-methoxy-phenoxy)-ethoxy]-2-(tetrahydro-furan-2-ylmethoxy)-6,7-dihydro-pyrimido[6,1-a]isoquinolin-4-one]
5 | 0.01 to 100 nM | N#Cc1ccc(COc2ccc3c(c2)CCn2c-3cc(OCC3CCCO3)nc2=O)cc1 (stereo not shown) [compound 17, 4-[4-oxo-2-(tetrahydro-furan-2-ylmethoxy)-6,7-dihydro-4H-pyrimido[6,1-a]isoquinolin-9-yloxymethyl]-benzonitrile]
6 | 0.01 to 100 nM | O=c1nc(OCC2COc3ncccc3O2)cc2n1CCc1ccccc1-2 (stereo not shown) [compound 146, 2-(2,3-dihydro-[1,4]dioxino[2,3-b]pyridin-2-ylmethoxy)-6,7-dihydro-pyrimido[6,1-a]isoquinolin-4-one]
7 | 0.01 to 100 nM | CC(C)c1nc(COc2ccc3c(c2)CCn2c-3cc(OCC3COc4ncccc4O3)nc2=O)no1 (stereo not shown) [compound 157, 2-(2,3-dihydro-[1,4]dioxino[2,3-b]pyridin-2-ylmethoxy)-9-(5-isopropyl-[1,2,4]oxadiazol-3-ylmethoxy)-6,7-dihydro-pyrimido[6,1-a]isoquinolin-4-one]
8 | 100 to 500 nM | O=c1nc(OCC2COc3ncccc3O2)cc2n1CCc1cc(CN3CCCC3)ccc1-2 (stereo not shown) [compound 197, 2-(2,3-dihydro-[1,4]dioxino[2,3-b]pyridin-2-ylmethoxy)-9-pyrrolidin-1-ylmethyl-6,7-dihydro-pyrimido[6,1-a]isoquinolin-4-one]
9 | 100 to 500 nM | CCN(CC)CC#Cc1ccc2c(c1)CCn1c-2cc(OCC2COc3ncccc3O2)nc1=O (stereo not shown) [compound 177, 9-(3-diethylamino-prop-1-ynyl)-2-(2,3-dihydro-[1,4]dioxino[2,3-b]pyridin-2-ylmethoxy)-6,7-dihydro-pyrimido[6,1-a]isoquinolin-4-one]
10 | 0.01 to 100 nM | COc1nccc(-c2ccc3c(c2)CCn2c-3cc(OCC3COc4ncccc4O3)nc2=O)c1Cl (stereo not shown) [compound 160, 9-(3-chloro-2-methoxy-pyridin-4-yl)-2-(2,3-dihydro-[1,4]dioxino[2,3-b]pyridin-2-ylmethoxy)-6,7-dihydro-pyrimido[6,1-a]isoquinolin-4-one]
11 | 0.01 to 100 nM | O=c1nc(OCC2CCCO2)cc2n1CCc1cc(OCCOc3cccc(Cl)c3)ccc1-2 (stereo not shown) [compound 44, 9-[2-(3-chloro-phenoxy)-ethoxy]-2-(tetrahydro-furan-2-ylmethoxy)-6,7-dihydro-pyrimido[6,1-a]isoquinolin-4-one]
12 | 0.01 to 100 nM | N#Cc1ccccc1COc1ccc2c(c1)CCn1c-2cc(OCC2CCCO2)nc1=O (stereo not shown) [compound 20, 2-[4-oxo-2-(tetrahydro-furan-2-ylmethoxy)-6,7-dihydro-4H-pyrimido[6,1-a]isoquinolin-9-yloxymethyl]-benzonitrile]
13 | 0.01 to 100 nM | COc1ncc(-c2ccc3c(c2)CCn2c-3cc(OCC3COc4ncccc4O3)nc2=O)cn1 (stereo not shown) [compound 166, 2-(2,3-dihydro-[1,4]dioxino[2,3-b]pyridin-2-ylmethoxy)-9-(2-methoxy-pyrimidin-5-yl)-6,7-dihydro-pyrimido[6,1-a]isoquinolin-4-one]
14 | 0.01 to 100 nM | N#Cc1cccc(-c2ccc3c(c2)CCn2c-3cc(OCC3COc4ncccc4O3)nc2=O)c1 (stereo not shown) [compound 98, 3-[2-(2,3-dihydro-[1,4]dioxino[2,3-b]pyridin-2-ylmethoxy)-4-oxo-6,7-dihydro-4H-pyrimido[6,1-a]isoquinolin-9-yl]-benzonitrile]
15 | 100 to 500 nM | CN1CCCC1CCOc1ccc2c(c1)CCn1c-2cc(OCC2COc3ccccc3O2)nc1=O (stereo not shown) [compound 83, 2-(2,3-dihydro-benzo[1,4]dioxin-2-ylmethoxy)-9-[2-(1-methyl-pyrrolidin-2-yl)-ethoxy]-6,7-dihydro-pyrimido[6,1-a]isoquinolin-4-one]
16 | 100 to 500 nM | CCCCNCC#Cc1ccc2c(c1)CCn1c-2cc(OCC2COc3ncccc3O2)nc1=O (stereo not shown) [compound 191, 9-(3-butylamino-prop-1-ynyl)-2-(2,3-dihydro-[1,4]dioxino[2,3-b]pyridin-2-ylmethoxy)-6,7-dihydro-pyrimido[6,1-a]isoquinolin-4-one]

Row | IC50 | SMILES
17 | 0.01 to 100 nM | O=c1nc(OCC2CCCO2)cc2n1CCc1cc(OCCOCc3ccccc3)ccc1-2 (stereo not shown) [compound 51, 9-(2-benzyloxy-ethoxy)-2-(tetrahydro-furan-2-ylmethoxy)-6,7-dihydro-pyrimido[6,1-a]isoquinolin-4-one]
18 | 100 to 500 nM | CN(C)c1ccc(-c2ccc3c(c2)CCn2c-3cc(OCC3CCCO3)nc2=O)cc1 (stereo not shown) [compound 105, 9-(4-dimethylamino-phenyl)-2-(tetrahydro-furan-2-ylmethoxy)-6,7-dihydro-pyrimido[6,1-a]isoquinolin-4-one]
19 | 0.01 to 100 nM | O=c1nc(OCC2COc3ccccc3O2)cc2n1CCc1cc(OCC3COc4ccccc4O3)ccc1-2 (stereo not shown) [compound 30, 2,9-bis-(2,3-dihydro-benzo[1,4]dioxin-2-ylmethoxy)-6,7-dihydro-pyrimido[6,1-a]isoquinolin-4-one]
20 | 0.01 to 100 nM | O=C(COc1ccc2c(c1)CCn1c-2cc(OCC2CCCO2)nc1=O)Nc1ccccc1 (stereo not shown) [compound 63, 2-[4-oxo-2-(tetrahydro-furan-2-ylmethoxy)-6,7-dihydro-4H-pyrimido[6,1-a]isoquinolin-9-yloxy]-N-phenyl-acetamide]
21 | 500 to 1000 nM | N#Cc1ccccc1-c1ccc2c(c1)CCn1c-2cc(OCC2CCCO2)nc1=O (stereo not shown) [compound 107, 2-[4-oxo-2-(tetrahydro-furan-2-ylmethoxy)-6,7-dihydro-4H-pyrimido[6,1-a]isoquinolin-9-yl]-benzonitrile]
22 | 0.01 to 100 nM | O=c1nc(OCC2COc3ccccc3O2)cc2n1CCc1cc(OCC3CCCO3)ccc1-2 (stereo not shown) [compound 54, 2-(2,3-dihydro-benzo[1,4]dioxin-2-ylmethoxy)-9-(tetrahydro-furan-2-ylmethoxy)-6,7-dihydro-pyrimido[6,1-a]isoquinolin-4-one]
23 | 0.01 to 100 nM | Cc1cc(COc2ccc3c(c2)CCn2c-3cc(OCC3COc4ncccc4O3)nc2=O)on1 (stereo not shown) [compound 159, 2-(2,3-dihydro-[1,4]dioxino[2,3-b]pyridin-2-ylmethoxy)-9-(3-methyl-isoxazol-5-ylmethoxy)-6,7-dihydro-pyrimido[6,1-a]isoquinolin-4-one]
24 | 0.01 to 100 nM | O=c1nc(OCC2CCCO2)cc2n1CCc1cc(OCc3ccccc3[N+](=O)[O-])ccc1-2 (stereo not shown) [compound 25, 9-(2-nitro-benzyloxy)-2-(tetrahydro-furan-2-ylmethoxy)-6,7-dihydro-pyrimido[6,1-a]isoquinolin-4-one]
25 | 500 to 1000 nM | CN(C)CCCOc1ccc2c(c1)CCn1c-2cc(OCC2COc3ccccc3O2)nc1=O (stereo not shown) [compound 82, 2-(2,3-Dihydro-benzo[1,4]dioxin-2-ylmethoxy)-9-(3-dimethylamino-propoxy)-6,7-dihydro-pyrimido[6,1-a]isoquinolin-4-one]
26 | 100 to 500 nM | O=c1nc(OCC2CCCO2)cc2n1CCc1cc(OCc3cccnc3)ccc1-2 (stereo not shown) [compound 8, 9-(pyridin-3-ylmethoxy)-2-(tetrahydro-furan-2-ylmethoxy)-6,7-dihydro-pyrimido[6,1-a]isoquinolin-4-one]
27 | 500 to 1000 nM | O=c1nc(OCC2CCCO2)cc2n1CCc1cc(-c3cccnc3)ccc1-2 (stereo not shown) [compound 94, 9-pyridin-3-yl-2-(tetrahydro-furan-2-ylmethoxy)-6,7-dihydro-pyrimido[6,1-a]isoquinolin-4-one]
28 | 500 to 1000 nM | O=c1nc(OCC2CCCO2)cc2n1CCc1cc(OCC3CCCO3)ccc1-2 (stereo not shown) [compound 52, 2,9-bis-(tetrahydro-furan-2-ylmethoxy)-6,7-dihydro-pyrimido[6,1-a]isoquinolin-4-one]
29 | 0.01 to 100 nM | O=c1nc(OCC2COc3ncccc3O2)cc2n1CCc1cc(C#CC3CC3)ccc1-2 (stereo not shown) [compound 141, 9-cyclopropylethynyl-2-(2,3-dihydro-[1,4]dioxino[2,3-b]pyridin-2-ylmethoxy)-6,7-dihydro-pyrimido[6,1-a]isoquinolin-4-one]
30 | 100 to 500 nM | N#CCNc1ccc2c(c1)CCn1c-2cc(OCC2COc3ncccc3O2)nc1=O (stereo not shown) [compound 151, [2-(2,3-dihydro-[1,4]dioxino[2,3-b]pyridin-2-ylmethoxy)-4-oxo-6,7-dihydro-4H-pyrimido[6,1-a]isoquinolin-9-ylamino]-acetonitrile]
31 | 0.01 to 100 nM | CC(O)(C#Cc1ccc2c(c1)CCn1c-2cc(OCC2COc3ncccc3O2)nc1=O)c1ccccc1 (stereo not shown) [compound 187, 2-(2,3-Dihydro-[1,4]dioxino[2,3-b]pyridin-2-ylmethoxy)-9-(3-hydroxy-3-phenyl-but-1-ynyl)-6,7-dihydro-pyrimido[6,1-a]isoquinolin-4-one]
